Consider 31 molecules from patent publication US20070293553A1, “Diphenylurea Derivatives Useful As Potassium Channel Activators” (priority 2004, published 2007).

Each structure is given as a SMILES string.

A word on the melting point: it is the temperature of the solid-liquid transition.

Data set [1] deals with cough reflex in conscious guinea-pigs. The data set can be described thus: Citric acid-induced cough in conscious guinea-pigs. Format: in vivo, guinea-pig. The following applies: prior exposure to aerosolized test compound (300 μM in nebulizer solution), 10 minutes citric acid aerosol, FIG. 1. How it is done: Exposure of animals for 10 minutes with citric acid aerosol elicited a reproducible cough response.
The cough model is based on guinea-pigs that have been pre-screened to assess their cough response to a 10 minutes exposure of aerosolised 0.35 M citric acid. […] The guinea-pigs are then ranked with regard to their tussive response to citric acid and divided into groups so that the mean number of coughs per group is similar in the vehicle and drug treated groups.
Cough is detected both by pressure change and by sound and recorded using a chart recorder. All animals received Terbutaline (0.05 mg/kg i.p.) 10 minutes prior to challenge with citric acid to alleviate any bronchoconstriction that may occur. These animals were allowed to recover for 1 week. Following this rest period the study was initiated and animals received aerosolised vehicle (1% DMSO) or test compound at 300 μM in 1% DMSO in saline for 20 minutes prior to exposure to citric acid. After dosing, the animals were monitored and exposed to 0.35 M citric acid for 10 minutes, and the number of coughs recorded.
Initially N-(3,5-Dichlorophenyl)-N′-[3-(1H-tetrazol-5-yl)-3′-trifluoromethyl-bi-phenyl-4-yl]-urea (Compound A (3-39)) and N-(3,5-Dichlorophenyl)-N′-[4-bromo-2-(1H-tetrazol-5-yl)phenyl]urea (Compound B) were subjected to this determination, and the results of these determinations are presented in FIG. 1.

In turn, `O=C(Nc1ccc(F)c(C(F)(F)F)c1)Nc1ccc(-c2ccc(Cl)cc2)cc1-c1nnn[nH]1` [Compound 3-15, N-(4-Fluoro-3-trifluoromethyl-phenyl)-N′-[4′-chloro-3-(1H-tetrazol-5-yl)-biphenyl-4-yl]-urea] gave a melting point of 243 to 245 °C.

In turn, `O=C(Nc1cc(C(F)(F)F)cc(C(F)(F)F)c1)Nc1ccc(-c2ccc(F)cc2)cc1-c1nnn[nH]1` [Compound 3-16, N-(3,5-Bis-trifluoromethyl-phenyl)-N′-[4′-fluoro-3-(1H-tetrazol-5-yl)-biphenyl-4-yl]-urea] yielded a melting point of 251 to 253 °C.

Consider `O=C(Nc1ccc(F)c(C(F)(F)F)c1)Nc1ccc(-c2ccc(F)cc2)cc1-c1nnn[nH]1` [Compound 3-17, N-(4-Fluoro-3-trifluoromethyl-phenyl)-N′-[4′-fluoro-3-(1H-tetrazol-5-yl)-biphenyl-4-yl]-urea], for which the melting point lay within 253 to 254 °C.

Consider `O=C(Nc1ccc(-c2ccc(C(F)(F)F)cc2)cc1-c1nnn[nH]1)Nc1ccccc1C(F)(F)F` [Compound 3-18, N-(2-Trifluoromethyl-phenyl)-N′-[3-(1H-tetrazol-5-yl)-4′-trifluoromethyl-biphenyl-4-yl]-urea], for which the melting point lay within 240 to 243 °C.

In the case of `O=C(Nc1ccc(-c2ccc(F)cc2)cc1-c1nnn[nH]1)Nc1ccccc1C(F)(F)F` [Compound 3-19, N-(2-Trifluoromethyl-phenyl)-N′-[4′-fluoro-3-(1H-tetrazol-5-yl)-biphenyl-4-yl]-urea], the melting point was 256 to 258 °C.

`O=C(Nc1ccccc1Br)Nc1ccc(-c2ccc(C(F)(F)F)cc2)cc1-c1nnn[nH]1` [Compound 3-20, N-(2-Bromo-phenyl)-N′-[3-(1H-tetrazol-5-yl)-4′-trifluoromethyl-biphenyl-4-yl]-urea]: the melting point is 242 to 243 °C.

`O=C(Nc1ccc(-c2ccc(Cl)cc2)cc1-c1nnn[nH]1)Nc1ccccc1C(F)(F)F` [Compound 3-21, N-(2-Trifluoromethyl-phenyl)-N′-[4′-chloro-3-(1H-tetrazol-5-yl)-biphenyl-4-yl]-urea] yielded a melting point of 290 to 292 °C.

Molecule `O=C(Nc1ccccc1Br)Nc1ccc(-c2ccc(Cl)cc2)cc1-c1nnn[nH]1` [Compound 3-22, N-(2-Bromo-phenyl)-N′-[4′-chloro-3-(1H-tetrazol-5-yl)-biphenyl-4-yl]-urea] registered a melting point of 255 to 256 °C.

`O=C(Nc1ccccc1Br)Nc1ccc(-c2ccc(F)cc2)cc1-c1nnn[nH]1` [Compound 3-23, N-(2-Bromo-phenyl)-N′-[4′-fluoro-3-(1H-tetrazol-5-yl)-biphenyl-4-yl]-urea] displayed a melting point of 256 to 258 °C.

As for `O=C(Nc1ccccc1F)Nc1ccc(-c2ccc(C(F)(F)F)cc2)cc1-c1nnn[nH]1` [Compound 3-24, N-(2-Fluoro-phenyl)-N′-[3-(1H-tetrazol-5-yl)-4′-trifluoromethyl-biphenyl-4-yl]-urea], the melting point fell in the range of 251 to 252 °C.

The molecule `O=C(Nc1ccccc1F)Nc1ccc(-c2ccc(Cl)cc2)cc1-c1nnn[nH]1` [Compound 3-25, N-(2-Fluoro-phenyl)-N′-[4′-chloro-3-(1H-tetrazol-5-yl)-biphenyl-4-yl]-urea] had a melting point of 257 to 259 °C.

In the case of `O=C(Nc1ccccc1F)Nc1ccc(-c2ccc(F)cc2)cc1-c1nnn[nH]1` [Compound 3-26, N-(2-Fluoro-phenyl)-N′-[4′-fluoro-3-(1H-tetrazol-5-yl)-biphenyl-4-yl]-urea], the melting point lay within 263 to 264 °C.

In turn, `Cc1ccc(-c2ccc(NC(=O)Nc3ccccc3F)c(-c3nnn[nH]3)c2)cc1` [Compound 3-27, N-(2-Fluoro-phenyl)-N′-[4′-methyl-3-(1H-tetrazol-5-yl)-biphenyl-4-yl]-urea] had a melting point of 260 to 262 °C.

Regarding `Cc1ccc(-c2ccc(NC(=O)Nc3ccccc3Cl)c(-c3nnn[nH]3)c2)cc1` [Compound 3-28, N-(2-Chloro-phenyl)-N′-[4′-methyl-3-(1H-tetrazol-5-yl)-biphenyl-4-yl]-urea], the melting point lay in the range of 261 to 263 °C.

For the molecule `Cc1ccc(-c2ccc(NC(=O)Nc3ccccc3Br)c(-c3nnn[nH]3)c2)cc1` [Compound 3-29, N-(2-Bromo-phenyl)-N′-[4′-methyl-3-(1H-tetrazol-5-yl)-biphenyl-4-yl]-urea], the melting point lay in the range of 255 to 257 °C.

As to `Cc1ccc(-c2ccc(NC(=O)Nc3ccccc3C(F)(F)F)c(-c3nnn[nH]3)c2)cc1` [Compound 3-30, N-(2-Trifluoromethyl-phenyl)-N′-[4′-methyl-3-(1H-tetrazol-5-yl)-biphenyl-4-yl]-urea], the melting point lay in the range of 259 to 261 °C.

Turning to `O=C(Nc1ccccc1Cl)Nc1ccc(-c2ccc(C(F)(F)F)cc2)cc1-c1nnn[nH]1` [Compound 3-31, N-(2-Chloro-phenyl)-N′-[3-(1H-tetrazol-5-yl)-4′-trifluoromethyl-biphenyl-4-yl]-urea], the melting point was in the range of 254 to 255 °C.

`O=C(Nc1ccccc1Cl)Nc1ccc(-c2ccc(Cl)cc2)cc1-c1nnn[nH]1` [Compound 3-32, N-(2-Chloro-phenyl)-N′-[4′-chloro-3-(1H-tetrazol-5-yl)-biphenyl-4-yl]-urea] displayed a melting point of 255 to 257 °C.

The molecule `O=C(Nc1ccccc1Cl)Nc1ccc(-c2ccc(F)cc2)cc1-c1nnn[nH]1` [Compound 3-33, N-(2-Chloro-phenyl)-N′-[4′-fluoro-3-(1H-tetrazol-5-yl)-biphenyl-4-yl]-urea] showed a melting point of 255 to 257 °C.

Take `COc1ccc(-c2ccc(NC(=O)Nc3cc(Cl)cc(Cl)c3)c(-c3nnn[nH]3)c2)cc1` [Compound 3-34, N-(3,5-Dichloro-phenyl)-N′-[4′-methoxy-3-(1H-tetrazol-5-yl)-biphenyl-4-yl]-urea]: the melting point was 200 to 201 °C.

`O=C(Nc1cc(F)cc(F)c1)Nc1ccc(-c2ccc(OC(F)(F)F)cc2)cc1-c1nnn[nH]1` [Compound 3-35, N-(3,5-Difluoro-phenyl)-N′-[3-(1H-tetrazol-5-yl)-4′-trifluoromethoxy-biphenyl-4-yl]-urea] gave a melting point of 238 to 241 °C.

The molecule `O=C(Nc1cc(Cl)cc(Cl)c1)Nc1ccc(-c2ccc(OC(F)(F)F)cc2)cc1-c1nnn[nH]1` [Compound 3-36, N-(3,5-Dichloro-phenyl)-N′-[3-(1H-tetrazol-5-yl)-4′-trifluoromethoxy-biphenyl-4-yl]-urea] showed a melting point of 224 to 225 °C.

With `O=C(Nc1cc(C(F)(F)F)cc(C(F)(F)F)c1)Nc1ccc(-c2ccc(OC(F)(F)F)cc2)cc1-c1nnn[nH]1` [Compound 3-37, N-(3,5-Bis-trifluoromethyl-phenyl)-N′-[3-(1H-tetrazol-5-yl)-4′-trifluoromethoxy-biphenyl-4-yl]-urea], the melting point lay within 238 to 240 °C.

As for `O=C(Nc1cc(F)cc(F)c1)Nc1ccc(-c2cccc(C(F)(F)F)c2)cc1-c1nnn[nH]1` [Compound 3-38, N-(3,5-Difluoro-phenyl)-N′-[3-(1H-tetrazol-5-yl)-3′-trifluoromethyl-biphenyl-4-yl]-urea], the melting point was 255 to 257 °C.

For `O=C(Nc1cc(C(F)(F)F)cc(C(F)(F)F)c1)Nc1ccc(-c2cccc(C(F)(F)F)c2)cc1-c1nnn[nH]1` [Compound 3-40, N-(3,5-Bis-trifluoromethyl-phenyl)-N′-[3-(1H-tetrazol-5-yl)-3′-trifluoromethyl-biphenyl-4-yl]-urea], the melting point fell in the range of 250 to 252 °C.

In turn, `COc1ccc(-c2ccc(NC(=O)Nc3cc(F)cc(F)c3)c(-c3nnn[nH]3)c2)cc1` [Compound 3-41, N-(3,5-Difluoro-phenyl)-N′-[4′-methoxy-3-(1H-tetrazol-5-yl)-biphenyl-4-yl]-urea] displayed a melting point of 129 to 133 °C.

In the case of `COc1ccc(-c2ccc(NC(=O)Nc3cc(C(F)(F)F)cc(C(F)(F)F)c3)c(-c3nnn[nH]3)c2)cc1` [Compound 3-42, N-(3,5-Bis-trifluoromethyl-phenyl)-N′-[4′-methoxy-3-(1H-tetrazol-5-yl)-biphenyl-4-yl]-urea], the melting point is 219 to 221 °C.

`O=C(Nc1cccc(Br)c1)Nc1ccc(-c2ccc(C(F)(F)F)cc2)cc1-c1nnn[nH]1` [Compound 3-43, N-(3-Bromo-phenyl)-N′-[3-(1H-tetrazol-5-yl)-4′-trifluoromethyl-biphenyl-4-yl]-urea] yielded a melting point of 203 to 210 °C.

Take `O=C(Nc1ccc(Cl)cc1)Nc1ccc(-c2ccc(C(F)(F)F)cc2)cc1-c1nnn[nH]1` [Compound 3-44, N-(4-Chloro-phenyl)-N′-[3-(1H-tetrazol-5-yl)-4′-trifluoromethyl-biphenyl-4-yl]-urea]: the melting point fell in the range of 232 to 234 °C.

In turn, `O=C(Nc1ccc(F)c(C(F)(F)F)c1)Nc1ccc(-c2cccc(C(F)(F)F)c2)cc1-c1nnn[nH]1` [Compound 3-45, N-(4-Fluoro-3-trifluoromethyl-phenyl)-N′-[3-(1H-tetrazol-5-yl)-3′-trifluoromethyl-biphenyl-4-yl]-urea] showed a melting point of 254 to 255 °C.

In the case of `O=C(Nc1cc(Cl)cc(Cl)c1)Nc1ccc(Br)cc1-c1nnn[nH]1` [Compound B, N-(3,5-Dichlorophenyl)-N′-[4-bromo-2-(1H-tetrazol-5-yl)phenyl]urea], the “cough response to citric acid” value in data set [1] is reported as “greatly reduced”.
